From publication PMC8699473, “An Easily Expandable Multi-Drug LC-MS Assay for the Simultaneous Quantification of 57 Oral Antitumor Drugs in Human Plasma” (Cancers, 2021)

Assay: Long-term stability in spiked pooled human plasma

Row | SMILES | Long-term stability, 1 month, -20°C Accuracy [%] (validation standard 2xLLOV) | Long-term stability, 1 month, -80°C Accuracy [%] (validation standard 2xLLOV) | Long-term stability, 2 month, -20°C Accuracy [%] (validation standard 2xLLOV) | Long-term stability, 2 month, -80°C Accuracy [%] (validation standard 2xLLOV) | Long-term stability, 3 month, -20°C Accuracy [%] (validation standard 2xLLOV) | Long-term stability, 3 month, -80°C Accuracy [%] (validation standard 2xLLOV) | Long-term stability, 6 weeks, 4°C, without daylight Accuracy [%] (validation standard 2xLLOV) | Long-term stability, 1 month, -20°C Accuracy [%] (validation standard LLOV) | Long-term stability, 1 month, -80°C Accuracy [%] (validation standard LLOV) | Long-term stability, 2 month, -20°C Accuracy [%] (validation standard LLOV) | Long-term stability, 2 month, -80°C Accuracy [%] (validation standard LLOV) | Long-term stability, 3 month, -20°C Accuracy [%] (validation standard LLOV) | Long-term stability, 3 month, -80°C Accuracy [%] (validation standard LLOV) | Long-term stability, 6 weeks, 4°C, without daylight Accuracy [%] (validation standard LLOV) | Long-term stability, 1 month, -20°C Accuracy [%] (validation standard MOV) | Long-term stability, 1 month, -80°C Accuracy [%] (validation standard MOV) | Long-term stability, 2 month, -20°C Accuracy [%] (validation standard MOV) | Long-term stability, 2 month, -80°C Accuracy [%] (validation standard MOV) | Long-term stability, 3 month, -20°C Accuracy [%] (validation standard MOV) | Long-term stability, 3 month, -80°C Accuracy [%] (validation standard MOV) | further results
1 | O=c1[nH]c(=O)n([C@H]2C[C@H](O)[C@@H](CO)O2)cc1C(F)(F)F [Trifluridine] | 112.0 | 105.0 | 107.3 | 104.3 | 103.6 | 99.5 | 68.8 | 97.0 | 95.2 | 79.5 | 70.3 | 89.9 | 85.8 | 49.1 | 99.4 | 94.6 | 109.3 | 104.7 | 92.2 | 90.8 | Long-term stability, 6 weeks, 4°C, without daylight Accuracy [%] (validation standard MOV): 59.0%; Long-term stability, 1 month, -20°C Accuracy [%] (validation standard ULOV): 93.7%; Long-term stability, 1 month, -80°C Accuracy [%] (validation standard ULOV): 88.8%; Long-term stability, 2 month, -20°C Accuracy [%] (validation standard ULOV): 98.4%; Long-term stability, 2 month, -80°C Accuracy [%] (validation standard ULOV): 95.5%; Long-term stability, 3 month, -20°C Accuracy [%] (validation standard ULOV): 82.1%; Long-term stability, 3 month, -80°C Accuracy [%] (validation standard ULOV): 79.9%; Long-term stability, 6 weeks, 4°C, without daylight Accuracy [%] (validation standard ULOV): 27.1%
2 | COc1cc2c(Nc3ccc(Br)cc3F)ncnc2cc1OCC1CCN(C)CC1 [Vandetanib] | 99.7 | 97.7 | 105.9 | 106.4 | 101.7 | 101.7 | 92.2 | 95.3 | 88.9 | 97.5 | 97.6 | 87.6 | 83.6 | 85.4 | 98.6 | 95.9 | 105.7 | 105.2 | 105.3 | 104.4 | Long-term stability, 6 weeks, 4°C, without daylight Accuracy [%] (validation standard MOV): 100.6%; Long-term stability, 1 month, -20°C Accuracy [%] (validation standard ULOV): 93.1%; Long-term stability, 1 month, -80°C Accuracy [%] (validation standard ULOV): 88.0%; Long-term stability, 2 month, -20°C Accuracy [%] (validation standard ULOV): 98.6%; Long-term stability, 2 month, -80°C Accuracy [%] (validation standard ULOV): 98.6%; Long-term stability, 3 month, -20°C Accuracy [%] (validation standard ULOV): 97.4%; Long-term stability, 3 month, -80°C Accuracy [%] (validation standard ULOV): 98.8%; Long-term stability, 6 weeks, 4°C, without daylight Accuracy [%] (validation standard ULOV): 93.5%
3 | CCCS(=O)(=O)Nc1ccc(F)c(C(=O)c2c[nH]c3ncc(-c4ccc(Cl)cc4)cc23)c1F [Vemurafenib] | 102.1 | 105.7 | 110.6 | 108.1 | 97.3 | 105.9 | 86.3 | 105.8 | 101.6 | 104.5 | 98.7 | 106.2 | 114.9 | 85.9 | 104.9 | 106.7 | 116.1 | 119.1 | 92.9 | 96.8 | Long-term stability, 6 weeks, 4°C, without daylight Accuracy [%] (validation standard MOV): 97.8%; Long-term stability, 1 month, -20°C Accuracy [%] (validation standard ULOV): 104.7%; Long-term stability, 1 month, -80°C Accuracy [%] (validation standard ULOV): 101.7%; Long-term stability, 2 month, -20°C Accuracy [%] (validation standard ULOV): 119.0%; Long-term stability, 2 month, -80°C Accuracy [%] (validation standard ULOV): 112.7%; Long-term stability, 3 month, -20°C Accuracy [%] (validation standard ULOV): 89.5%; Long-term stability, 3 month, -80°C Accuracy [%] (validation standard ULOV): 100.8%; Long-term stability, 6 weeks, 4°C, without daylight Accuracy [%] (validation standard ULOV): 94.4%
4 | CC1(C)CCC(CN2CCN(c3ccc(C(=O)NS(=O)(=O)c4ccc(NCC5CCOCC5)c([N+](=O)[O-])c4)c(Oc4cnc5[nH]ccc5c4)c3)CC2)=C(c2ccc(Cl)cc2)C1 [Venetoclax] | 102.9 | 104.0 | 104.9 | 111.9 | 85.1 | 101.9 | 99.8 | 111.0 | 109.1 | 105.5 | 115.7 | 101.9 | 99.3 | 92.7 | 99.9 | 103.6 | 109.3 | 110.0 | 100.0 | 99.6 | Long-term stability, 6 weeks, 4°C, without daylight Accuracy [%] (validation standard MOV): 99.5%; Long-term stability, 1 month, -20°C Accuracy [%] (validation standard ULOV): 108.0%; Long-term stability, 1 month, -80°C Accuracy [%] (validation standard ULOV): 102.7%; Long-term stability, 2 month, -20°C Accuracy [%] (validation standard ULOV): 112.4%; Long-term stability, 2 month, -80°C Accuracy [%] (validation standard ULOV): 114.0%; Long-term stability, 3 month, -20°C Accuracy [%] (validation standard ULOV): 92.9%; Long-term stability, 3 month, -80°C Accuracy [%] (validation standard ULOV): 102.2%; Long-term stability, 6 weeks, 4°C, without daylight Accuracy [%] (validation standard ULOV): 95.2%
5 | CCC1=C[C@@H]2CN(C1)Cc1c([nH]c3ccccc13)[C@@](C(=O)OC)(c1cc3c(cc1OC)N(C)[C@H]1[C@@](O)(C(=O)OC)[C@H](OC(C)=O)[C@]4(CC)C=CCN5CC[C@]31[C@@H]54)C2 [Vinorelbine] | 97.3 | 110.2 | 108.5 | 94.1 | 98.4 | 97.8 | 75.3 | 118.3 | 110.0 | 98.1 | 109.4 | 101.7 | 118.7 | 85.9 | 90.2 | 88.9 | 89.2 | 92.4 | 98.2 | 93.5 | Long-term stability, 6 weeks, 4°C, without daylight Accuracy [%] (validation standard MOV): 73.1%; Long-term stability, 1 month, -20°C Accuracy [%] (validation standard ULOV): 90.4%; Long-term stability, 1 month, -80°C Accuracy [%] (validation standard ULOV): 92.0%; Long-term stability, 2 month, -20°C Accuracy [%] (validation standard ULOV): 87.6%; Long-term stability, 2 month, -80°C Accuracy [%] (validation standard ULOV): 99.6%; Long-term stability, 3 month, -20°C Accuracy [%] (validation standard ULOV): 92.2%; Long-term stability, 3 month, -80°C Accuracy [%] (validation standard ULOV): 98.1%; Long-term stability, 6 weeks, 4°C, without daylight Accuracy [%] (validation standard ULOV): 56.9%
6 | CS(=O)(=O)c1ccc(C(=O)Nc2ccc(Cl)c(-c3ccccn3)c2)c(Cl)c1 [Vismodegib] | 105.4 | 99.5 | 106.5 | 104.3 | 100.1 | 99.6 | 107.5 | 92.5 | 88.6 | 94.1 | 96.9 | 84.3 | 84.4 | 96.6 | 97.8 | 97.9 | 103.0 | 103.7 | 101.3 | 100.9 | Long-term stability, 6 weeks, 4°C, without daylight Accuracy [%] (validation standard MOV): 109.8%; Long-term stability, 1 month, -20°C Accuracy [%] (validation standard ULOV): 90.5%; Long-term stability, 1 month, -80°C Accuracy [%] (validation standard ULOV): 87.8%; Long-term stability, 2 month, -20°C Accuracy [%] (validation standard ULOV): 94.5%; Long-term stability, 2 month, -80°C Accuracy [%] (validation standard ULOV): 95.1%; Long-term stability, 3 month, -20°C Accuracy [%] (validation standard ULOV): 94.9%; Long-term stability, 3 month, -80°C Accuracy [%] (validation standard ULOV): 93.4%; Long-term stability, 6 weeks, 4°C, without daylight Accuracy [%] (validation standard ULOV): 96.5%
